Results on 26 compounds are retold here after patent US10301267B2, “Compounds” (AstraZeneca AB, priority 2006, dated 2019).

Molecules are shown by their SMILES.

T1 sequence (P11362 22-822): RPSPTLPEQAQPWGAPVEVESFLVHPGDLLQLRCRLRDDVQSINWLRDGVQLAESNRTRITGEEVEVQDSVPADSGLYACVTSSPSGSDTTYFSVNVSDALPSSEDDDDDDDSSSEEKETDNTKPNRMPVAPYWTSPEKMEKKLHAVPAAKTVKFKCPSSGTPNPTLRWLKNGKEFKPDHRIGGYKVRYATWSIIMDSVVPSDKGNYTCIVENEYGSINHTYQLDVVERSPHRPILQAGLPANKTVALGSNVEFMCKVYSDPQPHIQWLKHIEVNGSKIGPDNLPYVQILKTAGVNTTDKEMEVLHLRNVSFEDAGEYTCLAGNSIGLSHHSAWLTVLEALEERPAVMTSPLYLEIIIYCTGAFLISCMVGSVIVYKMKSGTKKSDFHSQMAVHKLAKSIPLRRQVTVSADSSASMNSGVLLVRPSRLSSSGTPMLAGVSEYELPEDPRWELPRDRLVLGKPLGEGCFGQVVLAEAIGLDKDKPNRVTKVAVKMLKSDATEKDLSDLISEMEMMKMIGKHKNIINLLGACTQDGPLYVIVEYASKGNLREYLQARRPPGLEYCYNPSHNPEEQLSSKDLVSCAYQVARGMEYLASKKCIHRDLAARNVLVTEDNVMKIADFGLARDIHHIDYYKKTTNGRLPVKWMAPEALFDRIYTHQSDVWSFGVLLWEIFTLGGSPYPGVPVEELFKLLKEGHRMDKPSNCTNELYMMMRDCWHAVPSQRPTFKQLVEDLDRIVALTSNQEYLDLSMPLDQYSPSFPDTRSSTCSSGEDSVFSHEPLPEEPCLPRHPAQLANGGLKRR

One test has as its target T1, FGFR1 active kinase (Homo sapiens, UniProt P11362). In words: FGFR Kinase assay - Caliper Echo Dosing. Format: biochemical. The note with it: FGFR1 7.2 nM, 408 uM ATP, acoustic dosing; geometric mean of n.
On to `COc1cc(CCc2cc(NC(=O)c3cnc(N4CCN(C)CC4)nc3)[nH]n2)cc(OC)c1` [Example 85, N-[5-[2-(3,5-Dimethoxyphenyl)ethyl]-2H-pyrazol-3-yl]-2-(4-methylpiperazin-1-yl)pyrimidine-5-carboxamide], for which the midpoint of inhibition, the IC50, lay at 14.9 nM.
On the same count and under the same terms, to `COc1cc(CCc2cc(NC(=O)c3ccc(N4CCN(C5CC5)CC4)cc3)n[nH]2)cc(OC)c1` [Example 88, 4-(4-Cyclopropylpiperazin-1-yl)-N-[5-[2-(3,5-dimethoxyphenyl)ethyl]-1H-pyrazol-3-yl]benzamide] belongs 0.77 nM; to `COc1cc(CCc2cc(NC(=O)c3cnc(N4CCC(N(C)C)C4)cn3)[nH]n2)cc(OC)c1` (stereo not shown) [Example 157, N-[5-[2-(3,5-dimethoxyphenyl)ethyl]-2H-pyrazol-3-yl]-5-(3-dimethylaminopyrrolidin-1-yl)pyrazine-2-carboxamide], 2.4 nM; to `CCN(CC)C1CCN(c2cnc(C(=O)Nc3cc(CCc4cc(OC)cc(OC)c4)n[nH]3)cn2)C1` (stereo not shown) [Example 158, 5-(3-diethylaminopyrrolidin-1-yl)-N-[5-[2-(3,5-dimethoxyphenyl)ethyl]-2H-pyrazol-3-yl]pyrazine-2-carboxamide], 2.9 nM.
With `CCN1CCC(c2ccc(C(=O)Nc3cc(CCc4cc(OC)cc(OC)c4)n[nH]3)cc2)CC1` [Example 159, N-[5-[2-(3,5-dimethoxyphenyl)ethyl]-2H-pyrazol-3-yl]-4-(1-ethylpiperidin-4-yl)benzamide], the IC50 turned out to be 0.97 nM.
The same measure, in the same setting: to `COCC1CN(c2ncc(C(=O)Nc3cc(CCc4cc(OC)cc(OC)c4)n[nH]3)cn2)CCN1` (stereo not shown) [Example 160, N-[5-[2-(3,5-dimethoxyphenyl)ethyl]-2H-pyrazol-3-yl]-2-[3-(methoxymethyl)piperazin-1-yl]pyrimidine-5-carboxamide] belongs 4.3 nM; to `CNC1CCN(c2cnc(C(=O)Nc3cc(CCc4cc(OC)cc(OC)c4)n[nH]3)cn2)C1` (stereo not shown) [Example 161, N-[5-[2-(3,5-dimethoxyphenyl)ethyl]-2H-pyrazol-3-yl]-5-(3-methylaminopyrrolidin-1-yl)pyrazine-2-carboxamide], 3 nM; to `COc1cc(CCc2cc(NC(=O)c3cnc(C4CCN(C)CC4)nc3)[nH]n2)cc(OC)c1` [Example 162, N-[5-[2-(3,5-dimethoxyphenyl)ethyl]-2H-pyrazol-3-yl]-2-(1-methylpiperidin-4-yl)pyrimidine-5-carboxamide], 36 nM.
`COc1cc(CCc2cc(NC(=O)c3cnc(N4CCCN(C)CC4)cn3)[nH]n2)cc(OC)c1` [Example 163, N-[5-[2-(3,5-dimethoxyphenyl)ethyl]-2H-pyrazol-3-yl]-5-(4-methyl-1,4-diazepan-1-yl)pyrazine-2-carboxamide] yielded an IC50 of 1.8 nM.
Still for that read-out and setting: to `C=CCN1CCCN(c2ccc(C(=O)Nc3cc(CCc4cc(OC)cc(OC)c4)n[nH]3)cc2)CC1` [Example 164, N-[5-[2-(3,5-dimethoxyphenyl)ethyl]-2H-pyrazol-3-yl]-4-(4-prop-2-enyl-1,4-diazepan-1-yl)benzamide] belongs 0.78 nM; to `COc1cc(CCc2cc(NC(=O)c3ccc(N4CCCN(C5CC5)CC4)cc3)[nH]n2)cc(OC)c1` [Example 165, 4-(4-cyclopropyl-1,4-diazepan-1-yl)-N-[5-[2-(3,5-dimethoxyphenyl)ethyl]-2H-pyrazol-3-yl]benzamide], 0.064 nM; to `COc1cc(CCc2cc(NC(=O)c3ccc(N4CCCN(C(C)C)CC4)cc3)[nH]n2)cc(OC)c1` [Example 166, N-[5-[2-(3,5-dimethoxyphenyl)ethyl]-2H-pyrazol-3-yl]-4-(4-propan-2-yl-1,4-diazepan-1-yl)benzamide], 0.7 nM.
Same read-out and setting: under `COc1cc(CCc2cc(NC(=O)c3cnc(N4CCCN(C(C)C)CC4)cn3)[nH]n2)cc(OC)c1` [Example 167, N-[5-[2-(3,5-dimethoxyphenyl)ethyl]-2H-pyrazol-3-yl]-5-(4-propan-2-yl-1,4-diazepan-1-yl)pyrazine-2-carboxamide] stands 0.63 nM; under `COc1cc(CCc2cc(NC(=O)c3ccc(N4CCCN(C(C)C)CC4)s3)[nH]n2)cc(OC)c1` [Example 168, N-[5-[2-(3,5-dimethoxyphenyl)ethyl]-2H-pyrazol-3-yl]-5-(4-propan-2-yl-1,4-diazepan-1-yl)thiophene-2-carboxamide], 1.5 nM.
Turning to `CCN1CCCN(c2cnc(C(=O)Nc3cc(CCc4cc(OC)cc(OC)c4)n[nH]3)cn2)CC1` [Example 169, N-[5-[2-(3,5-dimethoxyphenyl)ethyl]-2H-pyrazol-3-yl]-5-(4-ethyl-1,4-diazepan-1-yl)pyrazine-2-carboxamide], it took 2.7 nM to reach half-maximal inhibition (IC50).
Same read-out and setting: to `CCN1CCCN(c2ccc(C(=O)Nc3cc(CCc4cc(OC)cc(OC)c4)n[nH]3)cc2)CC1` [Example 170, N-[5-[2-(3,5-dimethoxyphenyl)ethyl]-2H-pyrazol-3-yl]-4-(4-ethyl-1,4-diazepan-1-yl)benzamide] belongs 0.71 nM.
`CCN1CCCN(c2ncc(C(=O)Nc3cc(CCc4cc(OC)cc(OC)c4)n[nH]3)cn2)CC1` [Example 171, N-[5-[2-(3,5-dimethoxyphenyl)ethyl]-2H-pyrazol-3-yl]-2-(4-ethyl-1,4-diazepan-1-yl)pyrimidine-5-carboxamide] came in with an IC50 of 9.2 nM.
On the same count and under the same terms, to `C=CCN1CCCN(c2cnc(C(=O)Nc3cc(CCc4cc(OC)cc(OC)c4)n[nH]3)cn2)CC1` [Example 172, N-[5-[2-(3,5-dimethoxyphenyl)ethyl]-2H-pyrazol-3-yl]-5-(4-prop-2-enyl-1,4-diazepan-1-yl)pyrazine-2-carboxamide] belongs 3.4 nM; to `COc1cc(CCc2cc(NC(=O)c3cnc(N4CCCN(C(C)C)CC4)nc3)[nH]n2)cc(OC)c1` [Example 173, N-[5-[2-(3,5-dimethoxyphenyl)ethyl]-2H-pyrazol-3-yl]-2-(4-propan-2-yl-1,4-diazepan-1-yl)pyrimidine-5-carboxamide], 18 nM.
On the same count and under the same terms, under `COc1cc(CCc2cc(NC(=O)c3cnc(N4CCCN(C5CC5)CC4)cn3)[nH]n2)cc(OC)c1` [Example 174, 5-(4-cyclopropyl-1,4-diazepan-1-yl)-N-[5-[2-(3,5-dimethoxyphenyl)ethyl]-2H-pyrazol-3-yl]pyrazine-2-carboxamide] stands 3.7 nM; under `C=CCN1CCCN(c2ncc(C(=O)Nc3cc(CCc4cc(OC)cc(OC)c4)n[nH]3)cn2)CC1` [Example 175, N-[5-[2-(3,5-dimethoxyphenyl)ethyl]-2H-pyrazol-3-yl]-2-(4-prop-2-enyl-1,4-diazepan-1-yl)pyrimidine-5-carboxamide], 7 nM.
Still for that read-out and setting: under `COc1cc(CCc2cc(NC(=O)c3cnc(N4CCCN(C)CC4)nc3)[nH]n2)cc(OC)c1` [Example 176, N-[5-[2-(3,5-dimethoxyphenyl)ethyl]-2H-pyrazol-3-yl]-2-(4-methyl-1,4-diazepan-1-yl)pyrimidine-5-carboxamide] stands 5.8 nM.
`COc1cc(CCc2cc(NC(=O)c3cnc(N4CCCN(C5CC5)CC4)nc3)[nH]n2)cc(OC)c1` [Example 177, 2-(4-cyclopropyl-1,4-diazepan-1-yl)-N-[5-[2-(3,5-dimethoxyphenyl)ethyl]-2H-pyrazol-3-yl]pyrimidine-5-carboxamide]: the IC50 was found to be 7.3 nM.
The same measure, in the same setting: to `CNC(=O)c1cccc(CCc2cc(NC(=O)c3ccc(N4CCN(C)CC4)cc3)[nH]n2)c1` [Example 178, N-[5-[2-[3-(methylcarbamoyl)phenyl]ethyl]-2H-pyrazol-3-yl]-4-(4-methylpiperazin-1-yl)benzamide] belongs 1.1 nM.
Same read-out and setting: under `CCN1CCN(c2ccc(C(=O)Nc3cc(OCc4cc(OC)cc(OC)c4)n[nH]3)cc2)CC1` [Example 179, N-[5-[(3,5-dimethoxyphenyl)methoxy]-2H-pyrazol-3-yl]-4-(4-ethylpiperazin-1-yl)benzamide] stands 0.68 nM; under `CCN1CCN(c2ccc(C(=O)Nc3cc(CCc4cc(OC)cc(OC)c4)n[nH]3)cc2)CC1` [Example 180, N-[5-[2-(3,5-dimethoxyphenyl)ethyl]-2H-pyrazol-3-yl]-4-(4-ethylpiperazin-1-yl)benzamide], 1.7 nM.

For another test, the target named is T1, FGFR1 active kinase. Briefly: FGFR Kinase assay - Caliper. Further: 408 µM ATP. Format: biochemical. The conditions noted are these: FGFR1 […], 408 uM ATP; mean of n as printed; read-out: FGFR Kinase assay - Caliper, IC50.
On to `COc1cc(CCc2cc(NC(=O)c3cnc(N4CCN(C)CC4)nc3)[nH]n2)cc(OC)c1` [Example 85, N-[5-[2-(3,5-Dimethoxyphenyl)ethyl]-2H-pyrazol-3-yl]-2-(4-methylpiperazin-1-yl)pyrimidine-5-carboxamide], for which the IC50 is 118 nM.
Regarding `COc1cc(CCc2cc(NC(=O)c3ccc(N4CCN(C5CC5)CC4)cc3)n[nH]2)cc(OC)c1` [Example 88, 4-(4-Cyclopropylpiperazin-1-yl)-N-[5-[2-(3,5-dimethoxyphenyl)ethyl]-1H-pyrazol-3-yl]benzamide], the IC50 stood at 156 nM.

As usually defined, the IC50 is the point on the concentration scale where inhibition reaches its midpoint.
